Like-named read-outs stand apart in the source and are kept apart here.
What was measured:
herpesvirus 5 = herpesvirus 5 plaque reduction assay in MRC-5 cell monolayers; format: cell-based, human herpesvirus 5 (HCMV)
Procedure: Compound 1 was isolated from a unique Taiwanese plant (Taiwania cryptomerioides). See, e.g., Chang et al. (2000) Phytochemistry 55: 227. Antiviral drug ganciclovir (i.e., […], GCV) was purchased from Sigma. Both compounds were solubilized in 100% dimethyl sulfoxide (DMSO) at a concentration of 10 mM and stored at −20° C. The compounds were added to cultures such that the resulting concentrations of DMSO never exceed 0.05%, by volume. To reserve the stability of both compounds, Compound 1 and GCV were never stored in cell culture medium and made fresh for each experiment.
Human cell lines, HEL299 (ATCC CCL-137), MRC-5 (ATCC CCL-171), H1299 (CRL-5803), and ARPE19 (CRL-2302) were grown in respective culture media as indicated by the ATCC. All cell lines were screened periodically for mycoplasma contamination. Two HCMV lab strains, AD169 (VR-538) and the Town strain RC256 (the ATCC VR-2356) were purchased from ATCC. All stocks of HCMV were prepared as described in Spaete & Mocarski (1985) J Virol 54(3): 817-24.
The activities of Compound 1 and GCV against herpesvirus 5 were determined by a plaque reduction assay. All herpesvirus 5 plaque reduction assays were performed with monolayer cultures of MRC-5 cells in 6-well cluster dishes (Costar, Cambridge, Mass.). Briefly, one day before the experiment, MRC-5 cells were seeded into 6-well plates at a final concentration of 5×10^6 cells/well. On the day of virus inoculation, cells were treated with each test compound at a desired concentration for one hour before virus inoculation. The serially-diluted virus inoculums containing 10^5 to 10^0 PFU of herpesvirus […] were then added into cell cultures and incubated for additional 2 hours at 37° C. After the incubation, the cells were extensively washed with phosphate buffered saline (PBS) three times and then overlayed with the overlay medium containing 0.3% agar in the absence or presence of the test compounds. The cell cultures were maintained in the 37° C. incubator for two weeks. After removing the overlay agar, the cells were stained with crystal violet.

[1] = cytotoxic effect by MTS assay; format: cell-based; settings: human, read-out: LC50 value (i.e., half lethal concentration)
Procedure: The cytotoxic effect was also determined using the MTS (3-(4,5-dimethylthiazol-2-yl)-5-(3-carboxymethoxyphenyl)-2-(4-sulfophenyl)-2H-tetrazolium, inner salt) assay method described in Goodwin et al. (1995, J. Immunol. Methods. 179: 95).

[2] = system: herpesvirus 5 immediate early protein 2 (IE2 protein); assay: expression of herpesvirus 5 IE2 and late proteins in infected HEL299 cells; format: cell-based; settings: AD169, MOI 1.0, lysates day 0-7 post-infection
Procedure: Cell-free virus stock, whose titer had been determined by a plaque reduction assay, was used. One day before the experiment, herpesvirus 5-permissive cells were seeded into 6-well plates at a final concentration of 5×10^6 cells/well. On the day of viral infection, the cells were incubated with or without a test compound (Compound 1 or GCV) for one hour. Subsequently, the cells were washed with PBS twice and serum-free medium were added during virus inoculation. The virus inocula were approximately at a multiplicity of infection (MOI) of 0.1 to 1 PFU/cell depending on which cell line was used. After two hours of incubation with viruses, cells were washed with PBS to remove unbound viruses. The cells were maintained at fresh media with or without test compounds at 37° C. with 5% CO2 incubator. The cell lysate samples were collected on day 0, 1, 3, 5, and 7 after virus infection.
More specifically, HEL299 cells were infected with herpesvirus 5 lab strain AD169 at an MOI of 1.0. Cell lysates were then collected after 2 hours of virus absorption on day 0, 1, 3, 5, and 7 post-infection. IE2 protein in virally infected cells was expressed rapidly on day 1 and increased dramatically on day 5. The expression of herpesvirus 5 late proteins was also detected on days 5 and 7 post-infection.

[3] = system: herpesvirus 5 ie and pp150 transcripts; assay: reverse transcription (RT) assay of ie and pp150 transcripts in infected HEL299 cells; format: cell-based, herpesvirus 5 lab strain AD169; settings: AD169, MOI 1.0, total RNA day 0-7 post-infection
Procedure: To determine whether the absence of IE2 protein expression was due to Compound 1-induced abrogation at the transcriptional level, a reverse transcription (RT) assay was performed to measure the IE2 mRNA in the absence or presence of Compound 1. Basically, HEL299 cells were infected with herpesvirus 5 lab strain AD169 at a MOI of 1.0. Total RNAs were then extracted, collected after 2 hours of virus absorption on day 0, 1, 3, 5, and 7 post-infection. The expression of immediate early (ie) and late (pp150) gene products were determined by amplifying segments spanning at a common region shared by ie genes 1 and 2, and the 5′ end of pp150. As an internal control, a segment spanning β-actin was also amplified. […] The expression of pp150 transcripts was also detected after day 3.

Row | Structure (SMILES) | IC50 (herpesvirus 5; Human betaherpesvirus 5, MRC5, plaque reduction, MRC-5 cells, herpesvirus 5, read-out: IC50 value (i.e., 50% infectious concentration)) [µM] | CC50 [1] [µM] | detection of IE2 and late viral proteins in infected cells [2] | detection of viral RNA (ie and pp150 transcripts) [3] | IC50 (herpesvirus 5; Human betaherpesvirus 5, MRC5, read-out: IC50 value (i.e., 50% infectious concentration)) [µM] | potency relative to GCV (herpesvirus 5; IC50 compared with that of GCV) | SI (selectivity index=LC50/IC50) (herpesvirus 5; LC50 (MTS)/IC50 (plaque reduction)) | herpesvirus 5 growth in the presence of compound (herpesvirus 5; plaque reduction, MRC-5 cells)
1 | Nc1nc2c(ncn2COC(CO)CO)c(=O)[nH]1 [GCV, 2-amino-1,9-dihydro-9-[(2-hydroxy-1-(hydroxymethyl)ethoxy)methyl]-6H-purin-6-one, reference compound] | 1 |  |  |  |  |  |  | 
2 | O=C1OCc2c1cc1ccc3c(c1c2-c1ccc2c(c1)OCO2)OCO3 [Compound 1, 10-benzo[1,3]dioxol-5-yl-9H-furo[3′,4′:6,7]naphtho[1,2-d][1,3]dioxol-7-one] |  | > 16 | none of these viral proteins was detected | none of these viral RNA was detected | < 0.1 | ten-fold more potent | > 160 | inhibited
